Like-named read-outs stand apart in the source and are kept apart here.
Key:
[1] = tested on: MV-4-11 human acute myeloid leukemia; experiment: MV-4-11 CCK-8 proliferation assay; type: cell-based; conditions: MV-4-11 cells, 72 hr
Description: (§1) The following cancer cell lines were employed: A549 human lung carcinoma (ATCC, #CCL-185); BT-474 human breast carcinoma (ATCC, #HTB-20); MDA-MB-231 human breast adenocarcinoma (ATCC, #CRM−HTB-26); MDA-MB-468 human breast adenocarcinoma (ATCC, #HTB-132); MV-4-11 human acute myeloid leukemia (ATCC, #CRL-9591); and U-87 MG human glioblastoma (ATCC, #HTB-14). Cell lines were cultured essentially according to ATCC recommendations.
(§2) 3-fold serial dilutions of each test compound were prepared ranging from 20 μM to 1.02 nM.
(§3) % Inhibition=100−(D−B)/(S−B)*100%. • S: Absorbance of cells treated with DMSO • D: Absorbance of compound-treated cells • B: Absorbance of medium with DMSO without cells

[2] = tested on: U-87 MG human glioblastoma; experiment: U87 MG CCK-8 proliferation assay; type: cell-based; conditions: U-87 MG cells, read-out: U87MG CCK-8
Description: as §1, §2, §3

CCOc1cc(N2CCC(C(=O)N3CCN(Cc4ccc(-n5c(O)nnc5-c5cc(C(C)C)c(O)cc5O)cc4)CC3)CC2)ccc1N(CC)c1ncc2c(n1)N(S(C)(=O)=O)c1ccccc1C(=O)N2C [Compound 160, 2-((4-(4-(4-(4-(3-(2,4-dihydroxy-5-isopropylphenyl)-5-hydroxy-4H-1,2,4-triazol-4-yl)benzyl)piperazine-1-carbonyl)piperidin-1-yl)-2-ethoxyphenyl)(ethyl)amino)-5-methyl-11-(methylsulfonyl)-5,11-dihydro-6H-benzo[e]pyrimido[5,4-b][1,4]diazepin-6-one]
EC50 ([1]; Homo sapiens, MV4-11): < 100 nM
EC50 ([2]; Homo sapiens, U-87 MG, 72 h): 100 to 1000 nM

CCOc1cc(N2CCC(C(=O)N3CCN(Cc4ccc(-n5c(C(=O)NCCN6CCN(S(C)(=O)=O)CC6)nnc5-c5cc(C(C)C)c(O)cc5O)cc4)CC3)CC2)ccc1Nc1ncc2c(n1)N(C)c1ccccc1C(=O)N2C [Compound 172, 5-(2,4-dihydroxy-5-isopropylphenyl)-4-(4-((4-(1-(4-((5,11-dimethyl-6-oxo-6,11-dihydro-5H-benzo[e]pyrimido[5,4-b][1,4]diazepin-2-yl)amino)-3-ethoxyphenyl)piperidine-4-carbonyl)piperazin-1-yl)methyl)phenyl)-N-(2-(4-(methylsulfonyl)piperazin-1-yl)ethyl)-4H-1,2,4-triazole-3-carboxamide]
EC50 ([1]; Homo sapiens, MV4-11): < 100 nM
EC50 ([2]; Homo sapiens, U-87 MG, 72 h): < 100 nM

CCOc1cc(N2CCC(C(=O)N3CCC(Oc4ccc(-c5ccc(NC(=O)c6ccc(OC)c(-c7cccc(OC)c7)c6)cc5)cc4)CC3)CC2)ccc1Nc1ncc2c(n1)N(C)c1ccccc1C(=O)N2C [Compound 143, N-(4′-((1-(1-(4-((5,11-dimethyl-6-oxo-6,11-dihydro-5H-benzo[e]pyrimido[5,4-b][1,4]diazepin-2-yl)amino)-3-ethoxyphenyl)piperidine-4-carbonyl)piperidin-4-yl)oxy)-[1,1′-biphenyl]-4-yl)-3′,6-dimethoxy-[1,1′-biphenyl]-3-carboxamide]
EC50 ([1]; Homo sapiens, MV4-11): > 1000 nM
EC50 ([2]; Homo sapiens, U-87 MG, 72 h): > 1000 nM

CCOc1cc(N2CCC(C(=O)NCCCOc3ccc(-c4ccc(NC(=O)c5ccc(OC)c(-c6cccc(OC)c6)c5)cc4)c(OCCCN(C)C)c3)CC2)ccc1Nc1ncc2c(n1)N(C)c1ccccc1C(=O)N2C [Compound 152, N-(3-((4′-(3′,6-dimethoxy-[1,1′-biphenyl]-3-carboxamido)-2-(3-(dimethylamino)propoxy)-[1,1′-biphenyl]-4-yl)oxy)propyl)-1-(4-((5,11-dimethyl-6-oxo-6,11-dihydro-5H-benzo[e]pyrimido[5,4-b][1,4]diazepin-2-yl)amino)-3-ethoxyphenyl)piperidine-4-carboxamide]
EC50 ([1]; Homo sapiens, MV4-11): > 1000 nM
EC50 ([2]; Homo sapiens, U-87 MG, 72 h): > 1000 nM

CCOc1cc(N2CCC(C(=O)NCCOCCOc3ccc(-n4c(O)nnc4-c4cc(CC)c(O)cc4O)cc3)CC2)ccc1Nc1ncc2c(n1)N(C)c1ccccc1C(=O)N2C [Compound 014, 1-(4-((5,11-dimethyl-6-oxo-6,11-dihydro-5H-benzo[e]pyrimido[5,4-b][1,4]diazepin-2-yl)amino)-3-ethoxyphenyl)-N-(2-(2-(4-(3-(5-ethyl-2,4-dihydroxyphenyl)-5-hydroxy-4H-1,2,4-triazol-4-yl)phenoxy)ethoxy)ethyl)piperidine-4-carboxamide]
EC50 ([1]; Homo sapiens, MV4-11): 100 to 1000 nM
EC50 ([2]; Homo sapiens, U-87 MG, 72 h): 100 to 1000 nM

CCOc1cc(N2CCC(C(=O)N3CCC(CN4CCN(Cc5ccc(-n6c(C(=O)N[C@H](C)C(F)(F)F)nnc6-c6cc(CC)c(O)cc6O)cc5)CC4)CC3)CC2)ccc1Nc1ncc2c(n1)N(S(C)(=O)=O)c1ccccc1C(=O)N2C [Compound 176, (R)-4-(4-((4-((1-(1-(3-ethoxy-4-((5-methyl-11-(methylsulfonyl)-6-oxo-6,11-dihydro-5H-benzo[e]pyrimido[5,4-b][1,4]diazepin-2-yl)amino)phenyl)piperidine-4-carbonyl)piperidin-4-yl)methyl)piperazin-1-yl)methyl)phenyl)-5-(5-ethyl-2,4-dihydroxyphenyl)-N-(1,1,1-trifluoropropan-2-yl)-4H-1,2,4-triazole-3-carboxamide]
EC50 ([2]; 72 hr): 100 to 1000 nM

CCOc1cc(N2CCC(CN3CCN(Cc4ccc(-n5c(C(=O)NC(C)C(F)(F)F)nnc5-c5cc(CC)c(O)cc5O)cc4)CC3)CC2)ccc1Nc1ncc2c(n1)N(C1CCCC1)c1ccccc1C(=O)N2C (centres unmarked) [Compound 186, 4-(4-((4-((1-(4-((11-cyclopentyl-5-methyl-6-oxo-6,11-dihydro-5H-benzo[e]pyrimido[5,4-b][1,4]diazepin-2-yl)amino)-3-ethoxyphenyl)piperidin-4-yl)methyl)piperazin-1-yl)methyl)phenyl)-5-(5-ethyl-2,4-dihydroxyphenyl)-N-(1,1,1-trifluoropropan-2-yl)-4H-1,2,4-triazole-3-carboxamide]
EC50 ([1]; Homo sapiens, MV4-11): 100 to 1000 nM
EC50 ([2]; Homo sapiens, U-87 MG, 72 h): > 1000 nM

CCOc1cc(N2CCN(Cc3ccc(-n4c(O)nnc4-c4cc(C(C)C)c(O)cc4O)cc3)CC2)ccc1Nc1ncc2c(n1)N(C1CCCC1)c1ccccc1C(=O)N2C [Compound 188, 11-cyclopentyl-2-((4-(4-(4-(3-(2,4-dihydroxy-5-isopropylphenyl)-5-hydroxy-4H-1,2,4-triazol-4-yl)benzyl)piperazin-1-yl)-2-ethoxyphenyl)amino)-5-methyl-5,11-dihydro-6H-benzo[e]pyrimido[5,4-b][1,4]diazepin-6-one]
EC50 ([1]; Homo sapiens, MV4-11): 100 to 1000 nM
EC50 ([2]; Homo sapiens, U-87 MG, 72 h): > 1000 nM

CCOc1cc(N2CCC(C(=O)N3CCC(COc4ccc(-c5ccc(NC(=O)c6ccc(OC)c(-c7cccc(OC)c7)c6)cc5)cc4)CC3)CC2)ccc1Nc1ncc2c(n1)N(C)c1ccccc1C(=O)N2C [Compound 145, N-(4′-((1-(1-(4-((5,11-dimethyl-6-oxo-6,11-dihydro-5H-benzo[e]pyrimido[5,4-b][1,4]diazepin-2-yl)amino)-3-ethoxyphenyl)piperidine-4-carbonyl)piperidin-4-yl)methoxy)-[1,1′-biphenyl]-4-yl)-3′,6-dimethoxy-[1,1′-biphenyl]-3-carboxamide]
EC50 ([1]; Homo sapiens, MV4-11): > 1000 nM
EC50 ([2]; Homo sapiens, U-87 MG, 72 h): > 1000 nM

CCOc1cc(N2CCC(CN3CCN(Cc4ccc(-n5c(C(=O)NCC(F)(F)F)nnc5-c5cc(C(C)C)c(O)cc5O)cc4)CC3)CC2)ccc1Nc1ncc2c(n1)N(S(C)(=O)=O)c1ccccc1C(=O)N2C [Compound 178, 5-(2,4-dihydroxy-5-isopropylphenyl)-4-(4-((4-((1-(3-ethoxy-4-((5-methyl-11-(methylsulfonyl)-6-oxo-6,11-dihydro-5H-benzo[e]pyrimido[5,4-b][1,4]diazepin-2-yl)amino)phenyl)piperidin-4-yl)methyl)piperazin-1-yl)methyl)phenyl)-N-(2,2,2-trifluoroethyl)-4H-1,2,4-triazole-3-carboxamide]
EC50 ([1]; Homo sapiens, MV4-11): < 100 nM
EC50 ([2]; Homo sapiens, U-87 MG, 72 h): < 100 nM

CCOc1cc(N2CCC(C(=O)N3CCC(COc4ccc(-c5ccc(NC(=O)c6ccc(OC)c(-c7cccc(OC)c7)c6)cc5)c(OCCCN(C)C)c4)CC3)CC2)ccc1Nc1ncc2c(n1)N(C)c1ccccc1C(=O)N2C [Compound 151, N-(4′-((1-(1-(4-((5,11-dimethyl-6-oxo-6,11-dihydro-5H-benzo[e]pyrimido[5,4-b][1,4]diazepin-2-yl)amino)-3-ethoxyphenyl)piperidine-4-carbonyl)piperidin-4-yl)methoxy)-2′-(3-(dimethylamino)propoxy)-[1,1′-biphenyl]-4-yl)-3′,6-dimethoxy-[1,1′-biphenyl]-3-carboxamide]
EC50 ([2]; Homo sapiens, U-87 MG, 72 h): > 1000 nM

CCOc1cc(N2CCC(C(=O)N3CCC(N4CCN(Cc5ccc(-n6c(O)nnc6-c6cc(C(C)C)c(O)cc6O)cc5F)CC4)CC3)CC2)ccc1Nc1ncc2c(n1)N(C)c1ccccc1C(=O)N2C [Compound 033, 2-((4-(4-(4-(4-(4-(3-(2,4-dihydroxy-5-isopropylphenyl)-5-hydroxy-4H-1,2,4-triazol-4-yl)-2-fluorobenzyl)piperazin-1-yl)piperidine-1-carbonyl)piperidin-1-yl)-2-ethoxyphenyl)amino)-5,11-dimethyl-5,11-dihydro-6H-benzo[e]pyrimido[5,4-b][1,4]diazepin-6-one]
EC50 ([2]; Homo sapiens, U-87 MG, 72 h): 100 to 1000 nM

CCOc1cc(N2CCC(C(=O)N3CCC(CN4CCN(Cc5ccc(-n6c(C(=O)N[C@@H](C)C(F)(F)F)nnc6-c6cc(CC)c(O)cc6O)cc5)CC4)CC3)CC2)ccc1Nc1ncc2c(n1)N(S(C)(=O)=O)c1ccccc1C(=O)N2C [Compound 177, (S)-4-(4-((4-((1-(1-(3-ethoxy-4-((5-methyl-11-(methylsulfonyl)-6-oxo-6,11-dihydro-5H-benzo[e]pyrimido[5,4-b][1,4]diazepin-2-yl)amino)phenyl)piperidine-4-carbonyl)piperidin-4-yl)methyl)piperazin-1-yl)methyl)phenyl)-5-(5-ethyl-2,4-dihydroxyphenyl)-N-(1,1,1-trifluoropropan-2-yl)-4H-1,2,4-triazole-3-carboxamide]
EC50 [1]: < 100 nM

CCOc1cc(N2CCC(C(=O)N3CCC(COc4ccc(-c5ccc(NC(=O)c6ccc(OC)c(-c7cccc(OC)c7)c6)cc5)c(OCCCN(C)C)c4)CC3)CC2)ccc1Nc1ncc2c(n1)N(S(C)(=O)=O)c1ccccc1C(=O)N2C [Compound 158, N-(2′-(3-(dimethylamino)propoxy)-4′-((1-(1-(3-ethoxy-4-((5-methyl-11-(methylsulfonyl)-6-oxo-6,11-dihydro-5H-benzo[e]pyrimido[5,4-b][1,4]diazepin-2-yl)amino)phenyl)piperidine-4-carbonyl)piperidin-4-yl)methoxy)-[1,1′-biphenyl]-4-yl)-3′,6-dimethoxy-[1,1′-biphenyl]-3-carboxamide]
EC50 ([1]; Homo sapiens, MV4-11): > 1000 nM

Source: patent publication US20240124460A1, “METHODS AND COMPOSITIONS FOR TARGETED PROTEIN DEGRADATION” (Ranok Therapeutics (Hangzhou) Co. Ltd., priority 2020, published 2024)
